Measured values from PubChem BioAssay AID1963845 (Molecular Pharmacology Branch, DTP, NCI, 2024).

Test system: 429239-143-T-J1-PDC complex spheroid viability
Test: Anticancer human tumor 429239-143-T-J1-PDC patient-derived small cell lung carcinoma cell line growth inhibition [POLQ]
Conditions: for IC50: curve of first compound; for viability, T/C: stronger effect = lower value
Experimental: Multicellular complex tumor spheroid response to Polymerase (POL) inhibitors (novobiocin, ART-558, RP6685) in combination with a variety of drugs and investigational agents in selected tumor cell lines
The POL inhibitors (novobiocin, ART-558, and RP6685) were evaluated both individually and in combination with standard of care and investigational anticancer small molecules within a complex spheroid model of solid tumors. . Complex spheroids include a stromal component modeled by human endothelial cells (HUVEC) and fibroblasts modeled by human mesenchymal stem cells (MSCs). The concentration ranges selected for each drug and investigational agent were based upon clinically achievable concentrations if the clinical Cmax of the agent was known.
Compounds. The drugs and investigational agents: novobiocin (NSC847541), ART-558 (NSC835418), RP-6685 (NSC848927), peposertib (NSC802822), ceralasertib (NSC780249), elimusertib (NSC800525), camonsertib (NSC841442), AZD-1390 (NSC803789), olaparib (NSC753686), talazoparib (NSC767125), rucaparib (NSC756644), sotorasib (NSC818433), MRTX-1133 (NSC836407), SN-38 (NSC673596), topotecan (NSC609699), epotoside (NSC141540), doxorubicin (NSC123127), gemcitabine (NSC613327), 5-fluorouracil (NSC19893), paclitaxel (NSC125973), vemurafenib (NSC761431), MSA-2 (NSC828583), SN-011 (NSC837082), adavosertib (NSC754352), prexasertib (NSC758257), carboplatin (NSC241240) and oxaliplatin (NSC266046), were obtained from the National Cancer Institute (NCI) Developmental Therapeutics Program Chemical Repository (21). The FDA-approved anticancer drug set is available from the Developmental Therapeutics Program at https://dtp.cancer.gov/organization/dscb/obtaining/. […] The stock solutions were prepared in dimethyl sulfoxide (DMSO, Sigma-Aldrich, St. Louis, MO, cat. D2650), except for the platinum compounds which were prepared in saline (Quality Biological, Gaithersburg, MD, cat. 114-055-101), at 800-fold the tested concentration and stored at -70 degrees C prior to their use. All drugs and investigational agents were tested over a range starting from a high concentration at or near the clinical Cmax and decreasing in half-log increments. If the clinical Cmax for an agent had not been determined, the highest concentration tested was 10 microM, except for SN-38, which was tested at a high concentration of 1 microM.
Cell Culture. All cells were maintained in an incubator at 37 degrees C and 5% CO2 with 95% humidity. The PDC lines were cultured according to standard operating procedures established by the NCI PDMR (https://pdmr.cancer.gov). Table 3 of the manuscript, lists the cell lines along with the number of the three cell types plated to form the mct-spheroids and media for tumor cell growth. After thawing, all PDC lines, except 997537-175-T-J1-PDC and 415267-285-R-J2-PDC, were cultured in Matrigel-coated flasks prepared with a working solution of 1X Ham's F-12 nutrient mix, without supplementation (Thermo Fisher Scientific, cat. 11765054), 100 U/mL penicillin-streptomycin (Thermo Fisher Scientific, cat. 15140122), and 2.5% Matrigel (Corning Inc., Corning, NY, cat. 354248) for the first three passages. The two PDC lines 997537-175-T-J1-PDC and 415267-285-R-J2-PDC were cultured on uncoated flasks. The 857933-349-R-J2-PDC line was cultured in 6C/Colon 1B media containing advanced DMEM/F-12 (Thermo Fisher Scientific, cat. 12634028), 10 mM HEPES (Thermo Fisher Scientific, cat. 15630080), 1X GlutaMAX supplement (Thermo Fisher Scientific, cat. 35050061), 0.1 mg/mL primocin (InvivoGen, San Diego, CA, cat. ant-pm-2), 10% defined fetal bovine serum, heat inactivated (HyClone Laboratories Inc., Logan, UT, cat. SH30070.03HI), 50% L-WRN conditioned media (ATCC, cat. CRL-3276), 1.25 mM N-Acetyl-L-cysteine (Sigma-Aldrich, cat. A9165), 10 mM nicotinamide (Sigma-Aldrich, cat. N0636), 1X B-27 supplement (Thermo Fisher Scientific, cat. 17504044), 1X N-2 supplement (Thermo Fisher Scientific, cat. […]

[1] = second compound 0.0316 µM, first compound 0.0316 µM
[2] = second compound 0.0316 µM, first compound 0.1 µM
[3] = second compound 0.0316 µM, first compound 0.316 µM
[4] = second compound 0.0316 µM, first compound 1 µM
[5] = second compound 0.0316 µM, first compound 3.16 µM
[6] = second compound 0.0316 µM, first compound 10 µM
[7] = second compound 0.1 µM, first compound 0.0316 µM
[8] = second compound 0.1 µM, first compound 0.1 µM
[9] = second compound 0.1 µM, first compound 0.316 µM
[10] = second compound 0.1 µM, first compound 1 µM
[11] = second compound 0.1 µM, first compound 3.16 µM
[12] = second compound 0.1 µM, first compound 10 µM
[13] = second compound 0.316 µM, first compound 0.0316 µM
[14] = second compound 0.316 µM, first compound 0.1 µM
[15] = second compound 0.316 µM, first compound 0.316 µM
[16] = second compound 0.316 µM, first compound 1 µM
[17] = second compound 0.316 µM, first compound 3.16 µM
[18] = second compound 0.316 µM, first compound 10 µM
[19] = second compound 1 µM, first compound 0.0316 µM
[20] = second compound 1 µM, first compound 0.1 µM
[21] = second compound 1 µM, first compound 0.316 µM
[22] = second compound 1 µM, first compound 1 µM
[23] = second compound 1 µM, first compound 3.16 µM
[24] = second compound 1 µM, first compound 10 µM
[25] = second compound 3.16 µM, first compound 0.0316 µM
[26] = second compound 3.16 µM, first compound 0.1 µM
[27] = second compound 3.16 µM, first compound 0.316 µM
[28] = second compound 3.16 µM, first compound 1 µM
[29] = second compound 3.16 µM, first compound 3.16 µM
[30] = second compound 3.16 µM, first compound 10 µM
[31] = second compound 10 µM, first compound 0.0316 µM
[32] = second compound 10 µM, first compound 0.1 µM
[33] = second compound 10 µM, first compound 0.316 µM
[34] = second compound 10 µM, first compound 1 µM
[35] = second compound 10 µM, first compound 3.16 µM
[36] = second compound 10 µM, first compound 10 µM
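Further: luminescence signal used as surrogate measure of viable cells; spheroids exposed to compounds for seven days before readout.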
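Wherever viability, T/C is given: 100% = DMSO vehicle control viability as luminescence relative to vehicle.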

## CCc1cc2c(N3CCc4c(cc(Cn5ccnc5)cc4-c4cn(C)nc4C(F)(F)F)C3=O)cc(C)nc2c(OC)n1 + Nc1ccc(C#CCN(C(=O)Cc2ncc(C(F)(F)F)cc2C(F)(F)F)c2ccc(F)cc2)nn1
Second compound 0.0316 µM
  IC50: 7230 nM
Second compound 0.1 µM
  IC50: 8600 nM
Second compound 0.316 µM
  IC50: 8700 nM
Second compound 1 µM
  IC50: 7140 nM
Second compound 3.16 µM
  IC50: 7930 nM
Second compound 10 µM
  IC50: 4850 nM
[1]
  viability, T/C: 104%
[2]
  viability, T/C: 94.1%
[3]
  viability, T/C: 91.3%
[4]
  viability, T/C: 77.4%
[5]
  viability, T/C: 72.1%
[6]
  viability, T/C: 41.3%
[7]
  viability, T/C: 98.7%
[8]
  viability, T/C: 88.1%
[9]
  viability, T/C: 85.8%
[10]
  viability, T/C: 82.1%
[11]
  viability, T/C: 74.1%
[12]
  viability, T/C: 45.4%
[13]
  viability, T/C: 103%
[14]
  viability, T/C: 91.4%
[15]
  viability, T/C: 98.7%
[16]
  viability, T/C: 81.2%
[17]
  viability, T/C: 63.4%
[18]
  viability, T/C: 48.1%
[19]
  viability, T/C: 108%
[20]
  viability, T/C: 86.4%
[21]
  viability, T/C: 91.7%
[22]
  viability, T/C: 80.4%
[23]
  viability, T/C: 76%
[24]
  viability, T/C: 40%
[25]
  viability, T/C: 101%
[26]
  viability, T/C: 110%
[27]
  viability, T/C: 88.7%
[28]
  viability, T/C: 71.3%
[29]
  viability, T/C: 58.7%
[30]
  viability, T/C: 46.7%
[31]
  viability, T/C: 104%
[32]
  viability, T/C: 86.2%
[33]
  viability, T/C: 84.2%
[34]
  viability, T/C: 79.3%
[35]
  viability, T/C: 64.6%
[36]
  viability, T/C: 29.9%

## COc1cccc2c1C(=O)c1c(O)c3c(c(O)c1C2=O)CC(O)(C(=O)CO)CC3OC1CC(N)C(O)C(C)O1 (centres undefined) + Cc1cccc(N(C)C(=O)C2C(O)CCN2c2nc(C)cc(C(F)(F)F)c2C#N)c1
Second compound 0.0316 µM
  IC50: 56.5 nM
Second compound 0.1 µM
  IC50: 57.9 nM
Second compound 0.316 µM
  IC50: 47.8 nM
Second compound 1 µM
  IC50: 43.8 nM
Second compound 3.16 µM
  IC50: 46.9 nM
Second compound 10 µM
  IC50: 45.2 nM
[1]
  viability, T/C: 83.3%
[2]
  viability, T/C: 15.2%
[3]
  viability, T/C: 12.4%
[4]
  viability, T/C: 0.22%
[5]
  viability, T/C: 0.12%
[6]
  viability, T/C: 0.13%
[7]
  viability, T/C: 84.9%
[8]
  viability, T/C: 15.6%
[9]
  viability, T/C: 14.7%
[10]
  viability, T/C: 0.15%
[11]
  viability, T/C: 0.11%
[12]
  viability, T/C: 0.09%
[13]
  viability, T/C: 69.1%
[14]
  viability, T/C: 14.3%
[15]
  viability, T/C: 11.2%
[16]
  viability, T/C: 0.17%
[17]
  viability, T/C: 0.16%
[18]
  viability, T/C: 0.11%
[19]
  viability, T/C: 62.7%
[20]
  viability, T/C: 16%
[21]
  viability, T/C: 14.7%
[22]
  viability, T/C: 0.15%
[23]
  viability, T/C: 0.13%
[24]
  viability, T/C: 0.09%
[25]
  viability, T/C: 68.1%
[26]
  viability, T/C: 13.6%
[27]
  viability, T/C: 12.1%
[28]
  viability, T/C: 0.14%
[29]
  viability, T/C: 0.25%
[30]
  viability, T/C: 0.15%
[31]
  viability, T/C: 63.8%
[32]
  viability, T/C: 17.8%
[33]
  viability, T/C: 14.5%
[34]
  viability, T/C: 0.17%
[35]
  viability, T/C: 0.25%
[36]
  viability, T/C: 0.2%
